According to patent publication US7893055B2, “HIV integrase inhibitors” (priority 2006, dated 2011):

These molecules were tested against T1, HIV-integrase (Human immunodeficiency virus type 1 group M subtype B, UniProt P12497) (assay: HIV-Integrase Inhibition Activity (SPA strand transfer assay)). Conditions: recombinant integrase, SPA beads, P33 labeled target DNA; read-out: Activity (IC50 class, HIV-integrase inhibition).
T1 construct: Recombinant integrase (0.26 ng) was incubated with the beads
Format: biochemical
Method: HIV-Integrase InhibitionActivity. To evaluate in-vitro activity against HIV-integrase, 5 pmole of biotin labeled substrate DNA was bound to 100 μg of Streptavidin coated PVT SPA beads (Amersham Pharmacia Biotech). Recombinant integrase (0.26 ng) was incubated with the beads for 90 min at 37° C. Unbound enzyme was removed by washing the complex followed by addition of inhibitors and 0.1 fmol of P33 labeled target DNA. The reaction was stopped by adding EDTA to a final concentration of 10 mM. Samples were counted in TopCountNXT (Packard) and the CPM was used as a measure of integration. The reaction condition was as described in A. Engelman and R. Craigie, J. Virol. 69, 5908-5911 (1995). The sequences of substrate and target DNA were described in Nucleic Acid Research 22, 1121-1122 (1994). Activity equal to A refers to a compound having IC50=0.002 to 0.10 μM while B and C denote compounds having IC50=0.1 to 1.0 μM and IC50≧1.0 μM respectively.

**Q.** For `COC(=O)n1nc(CNC(=O)c2nc3n(c(=O)c2O)CCOC3(C)C)c2ccccc21` [Example 79, Methyl 3-((((3-hydroxy-9,9-dimethyl-4-oxo-4,6,7,9-tetrahydropyrimido[2,1-c][1,4]oxazin-2-yl)carbonyl)amino)methyl)-1H-indazole-1-carboxylate], which IC50 is on record?
**A.** 2 to 100 nM

**Q.** `CC1(C)OCCn2c1nc(C(=O)NCc1cccs1)c(O)c2=O` [Example 28, Pyrimido[2,1-c][1,4]oxazine-2-carboxamide, 4,6,7,9-tetrahydro-3-hydroxy-9,9-dimethyl-4-oxo-N-(2-thienylmethyl)-] was tested. Which IC50 did it give?
**A.** 2 to 100 nM

**Q.** Which IC50 does the source give for `Cn1cc(CN(Cc2cn(C)nn2)C(=O)c2nc3n(c(=O)c2O)CCOC3(C)C)nn1` [Example 26, Pyrimido[2,1-c][1,4]oxazine-2-carboxamide, 4,6,7,9-tetrahydro-3-hydroxy-9,9-dimethyl-N,N-bis[(1-methyl-1H-1,2,3-triazol-4-yl)methyl]-4-oxo-] here?
**A.** ≥ 1000 nM

**Q.** For “Pyrimido[2,1-c][1,4]oxazine-2- carboxamide, 4,6,7,9-tetrahydro-3- hydroxy-9,9-dimethyl-N-[(4- methyl-2-phenyl-5- thiazolyl)methyl]-4-oxo- [Example 74]”, which IC50 is on record?
**A.** ≥ 1000 nM

**Q.** “Pyrimido[2,1-c][1,4]oxazine-2- carboxamide, 4,6,7,9-tetrahydro-3- hydroxy-N-[[3-(4-methoxyphenyl)- 5-isoxazolyl]methyl]-9,9-dimethyl- 4-oxo- [Example 48]” was tested. Which IC50 did it give?
**A.** ≥ 1000 nM

**Q.** `CNC(=O)n1nc(CNC(=O)c2nc3n(c(=O)c2O)CCOC3(C)C)c2ccccc21` [Example 80, 3-Hydroxy-9,9-dimethyl-N-((1-(methylcarbamoyl)-1H-indazol-3-yl)methyl)-4-oxo-4,6,7,9-tetrahydropyrimido[2,1-c][1,4]oxazine-2-carboxamide] was tested. Which IC50 did it give?
**A.** 2 to 100 nM

**Q.** With `CCCn1ccc(CNC(=O)c2nc3n(c(=O)c2O)CCOC3(C)C)n1` [Example 93, 3-Hydroxy-9,9-dimethyl-4-oxo-N-((1-propyl-1H-pyrazol-3-yl)methyl)-4,6,7,9-tetrahydropyrimido[2,1-c][1,4]oxazine-2-carboxamide] as the molecule, how does the IC50 read?
**A.** 100 to 1000 nM

**Q.** With `Cc1ccc(CNC(=O)c2nc3n(c(=O)c2O)CCCC32CCC2)o1` [Example 82, 3′-Hydroxy-N-((5-methyl-2-furyl)methyl)-4′-oxo-7′,8′-dihydro-4′H,6′H-spiro[cyclobutane-1,9′-pyrido[1,2-a]pyrimidine]-2′-carboxamide] as the molecule, how does the IC50 read?
**A.** 2 to 100 nM

**Q.** Which IC50 does the source give for `Cc1ccc(CNC(=O)c2nc3n(c(=O)c2O)CCOC3(C)C)s1` [Example 29, Pyrimido[2,1-c][1,4]oxazine-2-carboxamide, 4,6,7,9-tetrahydro-3-hydroxy-9,9-dimethyl-N-[(5-methyl-2-thienyl)methyl]-4-oxo-] here?
**A.** 2 to 100 nM

**Q.** For “Pyrimido[2,1-c][1,4]oxazine-2- carboxamide, N-[(4-bromo-1- ethyl-1H-pyrazol-5-yl)methyl]- 4,6,7,9-tetrahydro-3-hydroxy-9,9- dimethyl-4-oxo- [Example 73]”, which IC50 is on record?
**A.** ≥ 1000 nM

**Q.** How did the IC50 turn out when `CCn1cc(CNC(=O)c2nc3n(c(=O)c2O)CCOC3(C)C)cn1` [Example 65, Pyrimido[2,1-c][1,4]oxazine-2-carboxamide, N-[(1-ethyl-1H-pyrazol-4-yl)methyl]-4,6,7,9-tetrahydro-3-hydroxy-9,9-dimethyl-4-oxo-] was run?
**A.** 100 to 1000 nM

**Q.** How did the IC50 turn out when “Pyrimido[2,1-c][1,4]oxazine-2- carboxamide, N-[(5-chloro-1H- indol-2-yl)methyl]-4,6,7,9- tetrahydro-3-hydroxy-9,9- dimethyl-4-oxo- [Example 62]” was run?
**A.** 100 to 1000 nM

**Q.** How did the IC50 turn out when `Cc1ccc(CNC(=O)c2nc3n(c(=O)c2O)CCCC32CCC2)s1` [Example 84, 3′Hhydroxy-N-((5-methyl-2-thienyl)methyl)-4′-oxo-7′,8′-dihydro-4′H,6′H-spiro[cyclobutane-1,9′-pyrido[1,2-a]pyrimidine]-2′-carboxamide] was run?
**A.** 2 to 100 nM

**Q.** How did the IC50 turn out when “Pyrimido[2,1-c][1,4]oxazine-2- carboxamide, 4,6,7,9-tetrahydro-3- hydroxy-9,9-dimethyl-N-[(5- methyl-3-phenyl-4- isoxazolyl)methy]-4-oxo- [Example 43]” was run?
**A.** ≥ 1000 nM

**Q.** For “Pyrimido[2,1-c][1,4]oxazine-2- carboxamide, 4,6,7,9-tetrahydro-3- hydroxy-9,9-dimethyl-N-[(1- methyl-1H-pyrrol-2-yl)methyl]-4- oxo [Example 47]”, which IC50 is on record?
**A.** 100 to 1000 nM

**Q.** For “Pyrimido[2,1-c][1,4]oxazine-2- carboxamide, 4,6,7,9-tetrahydro-3- hydroxy-9,9-dimethyl-N-[2-(5- methyl-1H-indol-3-yl)ethyl]-4-oxo- [Example 58]”, which IC50 is on record?
**A.** 100 to 1000 nM

**Q.** For `CC1(C)OCCn2c1nc(C(=O)NCc1nn(S(C)(=O)=O)c3ccccc13)c(O)c2=O` [Example 78, 3-Hydroxy-9,9-dimethyl-N-((1-(methylsulfonyl)-1H-indazol-3-yl)methyl)-4-oxo-4,6,7,9-tetrahydropyrimido[2,1-c][1,4]oxazine-2-carboxamide], which IC50 is on record?
**A.** 2 to 100 nM

**Q.** For “Pyrimido[2,1-c][1,4]oxazine-2- carboxamide, N-[(1-ethyl-3- methyl-1H-pyrazol-4-yl)methyl]- 4,6,7,9-tetrahydro-3-hydroxy-9,9- dimethyl-4-oxo- [Example 63]”, which IC50 is on record?
**A.** 100 to 1000 nM

**Q.** Which IC50 does the source give for `Cc1csc(CNC(=O)c2nc3n(c(=O)c2O)CCOC3(C)C)c1` [Example 30, Pyrimido[2,1-c][1,4]oxazine-2-carboxamide, 4,6,7,9-tetrahydro-3-hydroxy-9,9-dimethyl-N-[(4-methyl-2-thienyl)methyl]-4-oxo-] here?
**A.** 2 to 100 nM

**Q.** With `CNC(=O)c1ccoc1CNC(=O)c1nc2n(c(=O)c1O)CCOC2(C)C` [Example 12, Pyrimido[2,1-c][1,4]oxazine-2-carboxamide, 4,6,7,9-tetrahydro-3-hydroxy-9,9-dimethyl-N-[[3-[(methylamino)carbonyl]-2-furanyl]methyl]-4-oxo-] as the molecule, how does the IC50 read?
**A.** 2 to 100 nM

**Q.** With “Pyrimido[2,1-c][1,4]oxazine-2- carboxamide, N-[(1,3-diphenyl- 1H-pyrazol-4-yl)methyl]-4,6,7,9- tetrahydro-3-hydroxy-9,9- dimethyl-4-oxo- [Example 66]” as the molecule, how does the IC50 read?
**A.** 100 to 1000 nM

**Q.** With `CNC(=O)c1ccc(CNC(=O)c2nc3n(c(=O)c2O)CCOC3(C)C)o1` [Example 16, 3-Hydroxy-9,9-dimethyl-N-((5-(methylcarbamoyl)-2-furyl)methyl)-4-oxo-4,6,7,9-tetrahydropyrimido[2,1-c][1,4]oxazine-2-carboxamider] as the molecule, how does the IC50 read?
**A.** 100 to 1000 nM

**Q.** Which IC50 does the source give for `Cn1c(CNC(=O)c2nc3n(c(=O)c2O)CCOC3(C)C)cc2ccccc21` [Example 11, Pyrimido[2,1-c][1,4]oxazine-2-carboxamide, 4,6,7,9-tetrahydro-3-hydroxy-9,9-dimethyl-N-[(1-methyl-1H-indol-2-yl)methyl]-4-oxo-] here?
**A.** 2 to 100 nM

**Q.** `Cc1ccc(CNC(=O)c2nc3n(c(=O)c2O)CCOC3(C)C)o1` [Example 37, Pyrimido[2,1-c][1,4]oxazine-2-carboxamide, 4,6,7,9-tetrahydro-3-hydroxy-9,9-dimethyl-N-[(5-methyl-2-furanyl)methyl]-4-oxo-] was tested. Which IC50 did it give?
**A.** 2 to 100 nM

**Q.** `CC1(C)OCCn2c1nc(C(=O)NCc1cn3ccccc3n1)c(O)c2=O` [Example 15, Pyrimido[2,1-c][1,4]oxazine-2-carboxamide, 4,6,7,9-tetrahydro-3-hydroxy-N-(imidazo[1,2-a]pyridin-2-ylmethyl)-9,9-dimethyl-4-oxo-] was tested. Which IC50 did it give?
**A.** 2 to 100 nM
